Target: T1, STR3 (Trire2_62380) (Trichoderma reesei, UniProt G0RKF0)
T1 construct: gene TRIREDRAFT_62380
Experiment: two-electrode voltage clamp in Xenopus oocytes, transport current
Format: cell-based
Conditions: pH 5.5, -50 mV, H+ symport

T1 sequence (G0RKF0 entry or part of it): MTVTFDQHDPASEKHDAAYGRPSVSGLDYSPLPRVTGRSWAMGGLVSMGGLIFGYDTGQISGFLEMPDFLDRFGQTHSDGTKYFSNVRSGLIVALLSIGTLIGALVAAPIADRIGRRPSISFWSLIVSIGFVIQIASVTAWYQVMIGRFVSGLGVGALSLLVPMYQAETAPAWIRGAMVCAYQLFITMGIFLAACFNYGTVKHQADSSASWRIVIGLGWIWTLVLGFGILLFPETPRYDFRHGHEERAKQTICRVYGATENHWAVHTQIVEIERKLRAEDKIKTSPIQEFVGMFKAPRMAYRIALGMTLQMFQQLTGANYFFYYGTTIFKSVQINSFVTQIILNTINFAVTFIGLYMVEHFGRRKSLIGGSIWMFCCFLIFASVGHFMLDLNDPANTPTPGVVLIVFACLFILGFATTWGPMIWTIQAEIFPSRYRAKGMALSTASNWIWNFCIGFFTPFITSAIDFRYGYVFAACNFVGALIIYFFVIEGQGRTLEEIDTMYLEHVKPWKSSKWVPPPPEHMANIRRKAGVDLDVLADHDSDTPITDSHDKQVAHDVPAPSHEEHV

| Km [µM] | SMILES |
| --- | --- |
| 1110 ± 490 | OC[C@H]1OC(O)[C@H](O)[C@@H](O)[C@H]1O (stereo partly drawn) [D-galactose] |
| 57.9 ± 17.7 | OC[C@H]1OC(O)[C@H](O)[C@@H](O)[C@@H]1O (stereo partly drawn) [D-glucose] |
| 186 ± 18.9 | OC[C@H]1OC(O)[C@@H](O)[C@@H](O)[C@@H]1O (stereo partly drawn) [D-mannose] |
